The values below come from PubChem BioAssay (NCI).

Holding throughout (test): DTP human tumour cell line panel, 48 h
For assay [1], the system named is COLO 205 colon.
In assay [2] the test system is SF-268 CNS.
Assay [3] deals with OVCAR-8 ovarian.
Assay [4] concerns HL-60(TB) leukemia.
In assay [5] the test system is ACHN renal.
Assay [6] has as its system K-562 leukemia.
Assay [7] deals with T-47D breast.
Assay [8] has as its system RPMI-8226 leukemia.

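Compound exposure: 48 hours, 5 concentrations, 96-well plates. At the GI50, growth is halved. TGI: total growth inhibition.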

Take `O=C(C[C@@]1(O)C(=O)Nc2c(Cl)ccc(Cl)c21)c1ccc(C2CC2)cc1`: the GI50 (as a rule, the concentration that inhibits growth by half) is 0.298 µM in assay [1]; 1.3 µM in assay [2]; 0.577 µM in assay [3]; 0.263 µM in assay [4]; 0.726 µM in assay [5]; 0.05 µM in assay [6]. Besides, the GI50 in assay [7] is 0.454 µM; in assay [8] it was 0.433 µM. For the same compound, the TGI (usually the concentration giving total growth inhibition) is 2.13 µM in assay [1]; 18.5 µM in assay [2]; 19.3 µM in assay [3]; 1.07 µM in assay [4]; 31.3 µM in assay [5]; above 51.7 µM in assay [6]. The TGI was determined as 32.5 µM in assay [7] and 21.4 µM in assay [8].

Regarding `COc1cc(-c2cc(-c3nc4cc(Cl)c(Cl)cc4[nH]3)[nH]n2)cc(OC)c1OC`, the GI50 was 3.77 µM in assay [1]; 3.95 µM in assay [2]; 2.51 µM in assay [3]; 3.34 µM in assay [4]; 3.54 µM in assay [5]; 3.3 µM in assay [6]. For the same compound, the GI50 in assay [7] is 1.87 µM; in assay [8], 1.75 µM. Also, the TGI amounted to 12.7 µM in assay [1]; 14.9 µM in assay [2]; 7.48 µM in assay [3]; 11.6 µM in assay [4]; 12.8 µM in assay [5]; 24.9 µM in assay [6]. Moreover, the TGI in assay [7] was 5 µM; in assay [8] it was 4.39 µM.

Regarding `Cc1cc(Nc2cc(CN3CCOCC3)c3nc(C)c(Cc4ccc(Cl)cc4F)n3n2)n[nH]1`, the GI50 in assay [1] is 0.684 µM; in assay [2], 1.03 µM; in assay [3], 2.79 µM; in assay [4], 0.768 µM; in assay [5], 1.63 µM; in assay [6] it was 0.473 µM. Also, the results for the GI50 in assay [7] and in assay [8] were 1.23 µM and 1.88 µM, respectively. In addition, the total growth inhibition concentration (TGI) in assay [1] was 2.01 µM; in assay [2] it was 4.65 µM; in assay [3] it was 17.2 µM; in assay [4] it was 2.86 µM; in assay [5], 10.9 µM; in assay [6] it was 13.6 µM. In addition, the TGI in assay [7] is 16.2 µM; in assay [8] it was 14.8 µM.

With `COc1cc([N+](=O)[O-])c(S(=O)(=O)O)cc1N`, the concentration for total growth inhibition (TGI) in assay [1], in assay [2], in assay [3], in assay [4], in assay [5] and in assay [6] was above 100 µM throughout. Besides, the TGI in assay [7] and in assay [8] was above 100 µM in each case.

Take `O=C1c2ccc3c4c(ccc(c24)C(=O)N1CCCNCc1ccccc1)C(=O)N(CCCNCc1ccccc1)C3=O`: the GI50 was 0.113 µM in assay [1]; 0.173 µM in assay [2]; 0.0993 µM in assay [3]; 0.163 µM in assay [4]; 0.135 µM in assay [5]; 0.136 µM in assay [6]. The GI50 in assay [7] was 0.192 µM; in assay [8], 0.265 µM. The TGI in assay [1] stood at 0.24 µM; in assay [2], 0.531 µM; in assay [3], 0.407 µM; in assay [4], 0.412 µM; in assay [5], 0.722 µM; in assay [6], 0.778 µM. For the same compound, the TGI in assay [7] was determined as 0.429 µM; in assay [8], 0.939 µM.

On to `COc1cc2cn3c4ccc(O)cc4nc(N)c3c2cc1OC`, for which the GI50 is 0.342 µM in assay [1]; 0.149 µM in assay [2]; 0.773 µM in assay [3]; 0.887 µM in assay [4]; 0.191 µM in assay [5]; 0.0348 µM in assay [6]. In addition, the figures for the GI50 in assay [7] and in assay [8] were 0.435 µM and 1.25 µM, respectively. The total growth inhibition concentration (TGI) in assay [1] stood at 6.6 µM; in assay [2], 15.1 µM; in assay [3] it was 12.6 µM; in assay [4], 2.41 µM; in assay [5], 2.77 µM; in assay [6] it was 3.6 µM. Also, the TGI in assay [7] came out at 16.4 µM; in assay [8], 8.32 µM.

Turning to `COc1nc2c(cc1S(=O)(=O)c1ccccc1)CCc1c-2cnn1Cc1ccccc1`, the GI50 was 7.32 µM in assay [1]; above 100 µM in assay [2]; 34.5 µM in assay [3]; 2.95 µM in assay [4]; 42.6 µM in assay [5]; 3.02 µM in assay [6]. Moreover, the GI50 in assay [7] was 3.09 µM; in assay [8], 3.49 µM. In addition, the TGI in assay [1], in assay [2], in assay [3], in assay [4], in assay [5] and in assay [6] was above 100 µM each time. Also, the TGI in assay [7] was 79.5 µM; in assay [8] it was above 100 µM.

Regarding `Cc1ccc(Nc2[nH]c(C(=O)c3ccc(Cl)cc3)c(N)c2C(=S)Nc2ccccc2)nc1`, the GI50 in assay [1] is 31.9 µM; in assay [2], 32.7 µM; in assay [3], 22 µM; in assay [4], 63.3 µM; in assay [5] it was 31.9 µM; in assay [6], 45.4 µM. For the same compound, the GI50 is 29.8 µM in assay [7] and 25.5 µM in assay [8]. Further, the total growth inhibition concentration (TGI) was above 100 µM in assay [1]; above 100 µM in assay [2]; 97.3 µM in assay [3]; above 100 µM in assay [4]; above 100 µM in assay [5]; above 100 µM in assay [6]. In addition, the TGI in assay [7] and in assay [8] was above 100 µM throughout.

For `C[C@@H]1[C@H]2[C@H](C=C3[C@@H]4CC[C@H]5Cc6nc7c(nc6C[C@]5(C)[C@H]4C[C@@H](O)[C@@]32C)C[C@@H]2CC[C@H]3C4=C[C@@H]5O[C@@]6(CC[C@](C)(CO)O6)[C@@H](C)[C@@]5(O)[C@@]4(C)[C@H](O)C[C@@H]3[C@@]2(C)C7)O[C@]12CCC(C)(C)O2`, the GI50 is 0.292 µM in assay [1]; 0.756 µM in assay [2]; 10.1 µM in assay [3]; 0.419 µM in assay [4]; 0.843 µM in assay [5]; 0.345 µM in assay [6]. Also, the GI50 is 0.405 µM in assay [7] and 0.0819 µM in assay [8]. Moreover, the total growth inhibition concentration (TGI) in assay [1] was 0.926 µM; in assay [2], 31.6 µM; in assay [3], above 100 µM; in assay [4] it was 7.76 µM; in assay [5], above 100 µM; in assay [6], 2.3 µM. The concentration for total growth inhibition (TGI) in assay [7] was above 41.8 µM; in assay [8], 0.723 µM.

Take `O=c1c2[nH]c3ccccc3c2nc2n1CCS2`: the GI50 was above 100 µM in assay [1]; above 100 µM in assay [2]; above 100 µM in assay [3]; 17.5 µM in assay [4]; 65.2 µM in assay [5]; above 100 µM in assay [6]. For the same compound, the GI50 in assay [7] and in assay [8] was above 100 µM each time. In addition, the TGI in assay [1], in assay [2], in assay [3], in assay [4], in assay [5] and in assay [6] was above 100 µM in each case. Also, the TGI in assay [7] and in assay [8] was above 100 µM each time.

For the compound `CN(C)CCN1C(=O)c2cccc3c(N)ccc(c23)C1=O`, the GI50 is 8.18 µM in assay [1]; 15 µM in assay [2]; 9.53 µM in assay [3]; 4.33 µM in assay [4]; 7.9 µM in assay [5]; 6.76 µM in assay [6]. For the same compound, the GI50 in assay [7] is 17 µM; in assay [8] it was 7.71 µM. The TGI is above 25 µM in assay [1]; above 25 µM in assay [2]; above 25 µM in assay [3]; 18.9 µM in assay [4]; above 25 µM in assay [5]; 20.4 µM in assay [6]. In addition, the TGI in assay [7] and in assay [8] was above 25 µM throughout.

For the compound `Cc1coc2c1CC1OC1(C)CCC1OC1(C)C2` (configuration not stated), the TGI in assay [1], in assay [2], in assay [3], in assay [4], in assay [5] and in assay [6] was above 100 µM each time. For the same compound, the TGI in assay [7] and in assay [8] was above 100 µM each time.

As to `Cc1c2cnccc2c(C)c2c1c1cc(C(=O)O)ccc1n2C`, the GI50 in assay [1] is 0.594 µM; in assay [2] it was 0.937 µM; in assay [3] it was 0.675 µM; in assay [4] it was 2.09 µM; in assay [5], 0.464 µM; in assay [6], 1.28 µM. Also, the GI50 in assay [7] is 1.51 µM; in assay [8] it was 1.26 µM. Also, the TGI in assay [1] was 4.02 µM; in assay [2], 4.81 µM; in assay [3] it was 8.3 µM; in assay [4] it was 6.64 µM; in assay [5] it was 5.27 µM; in assay [6], above 100 µM. Also, the values for the TGI in assay [7] and in assay [8] were above 26.5 µM and 5.66 µM, respectively.

In the case of `O=C(CCc1ccco1)NC1CCN(CC2(c3ccc(Cl)cc3)CCC2)CC1`, the GI50 in assay [1] was 15.3 µM; in assay [2] it was 15.1 µM; in assay [3] it was 14.5 µM; in assay [4], 15.5 µM; in assay [5], 10.5 µM; in assay [6], 2.17 µM. The figures for the GI50 in assay [7] and in assay [8] were 16.2 µM and 13.2 µM, respectively. Besides, the TGI in assay [1] came out at 31.8 µM; in assay [2] it was 30.7 µM; in assay [3], 30.1 µM; in assay [4], 38.9 µM; in assay [5], 22.7 µM; in assay [6] it was 4.62 µM. The TGI in assay [7] worked out at 46.6 µM; in assay [8], 35 µM.

Consider `CC(N)(Cc1c[nH]c2ccccc12)C(=O)O` (configuration not stated), for which the GI50 in assay [1], in assay [2], in assay [3], in assay [4], in assay [5] and in assay [6] was above 2500 µM in each case. The GI50 in assay [7] and in assay [8] was above 2500 µM in each case. In addition, the TGI in assay [1], in assay [2], in assay [3], in assay [4], in assay [5] and in assay [6] was above 2500 µM in each case. Also, the TGI in assay [7] and in assay [8] was above 2500 µM throughout.

With `CSC1=Nc2c(c(C)c(-c3ccccc3)n2CCCCl)C2=NC(=O)CN12`, the GI50 is 4.13 µM in assay [1]; 8.57 µM in assay [2]; 16.3 µM in assay [3]; 3.41 µM in assay [4]; 9.48 µM in assay [5]; 5.77 µM in assay [6]. Moreover, the GI50 in assay [7] is 2.63 µM; in assay [8], 3.68 µM. The TGI in assay [1] was 15.2 µM; in assay [2], 47.6 µM; in assay [3], 72.8 µM; in assay [4] it was above 100 µM; in assay [5], 37.7 µM; in assay [6], above 100 µM. Besides, the TGI in assay [7] is 10.9 µM; in assay [8], 66.5 µM.

With `COc1ccc2c(c1)C(=O)c1c-2c(OCCN(C)C)nc2cc(OC)ccc12`, the GI50 in assay [1] is 0.571 µM; in assay [2], 1.12 µM; in assay [3], 0.957 µM; in assay [4], 1.98 µM; in assay [5], 0.532 µM; in assay [6] it was 1.06 µM. The results for the GI50 in assay [7] and in assay [8] were 6.1 µM and 1.71 µM, respectively. Further, the TGI is 10.8 µM in assay [1]; 2.84 µM in assay [2]; 5.35 µM in assay [3]; 4.26 µM in assay [4]; 1.9 µM in assay [5]; 2.82 µM in assay [6]. The TGI in assay [7] turned out to be 21.8 µM; in assay [8], 5.09 µM.

For `COc1ccc(C2=CC(c3ccc(Oc4ccnc5cc(Cl)ccc45)c(OC)c3)c3c(nc(OC)[nH]c3=O)N2)cc1` (configuration not stated), the GI50 in assay [1] was 79.9 µM; in assay [2], 5.09 µM; in assay [3], 4.85 µM; in assay [4] it was 3.51 µM; in assay [5], 5.24 µM; in assay [6], 3.73 µM. The GI50 in assay [7] was 6.83 µM; in assay [8] it was 2.73 µM. Besides, the TGI is above 100 µM in assay [1]; above 100 µM in assay [2]; above 100 µM in assay [3]; 45.5 µM in assay [4]; above 100 µM in assay [5]; above 100 µM in assay [6]. For the same compound, the total growth inhibition concentration (TGI) in assay [7] was above 100 µM; in assay [8], 7.27 µM.
